This is an account of results in US20160366886A1, “BIOCIDAL COMPOSITION, PREPARATION AND METHODS OF USE THEREOF” (BROMINE COMPOUNDS LTD., priority 2014, published 2016).

The test system of data set [1] is Pseudomonas aeruginosa (ATCC 15442). Briefly: Biocidal activity against simulated biofilm (bacteria entrapped in alginate gel beads), surviving CFU. It counts as cell-based. Conditions: for time of total kill: alginate beads, pH 7. The text has this: A biofilm simulation system developed by the Biofilm Bozeman Institute Montana (Grobe K. J., Zahler J., and Stewart P. S., 2002 in “Role of dose concentration in biocide efficacy against Pseudomonas aeruginosa Biofilms”, J. Industrial Microbiology & Biotechnology, vol. 29, pp 10-15), was used in this experiment to evaluate the efficacy of biocidal solutions against biofilm.
The biofilm simulation was created by entrapping bacteria in alginate gel beads. A plate of R2A agar was streaked with Pseudomonas aeruginosa (ATCC 15442) and incubated at 35° C. overnight. Buffer phosphate at pH 7.2 was used to scrap off the bacteria from the agar plate and to create a suspension. The bacterial suspension was mixed with an equal volume of an aqueous 4% sodium alginate solution, to make a final 2% alginate solution. The alginate and bacterial slurry were placed in a 50 ml syringe attached to a 22 gauge needle, connected to a compressed air tank, allowing the syringe to be pressurized. At 20 psig pressure a stream of small drops was forced out and dropped into a stirred solution of 50 mM CaCl2. The Ca^+2 cross linked the alginate, and semi solid beads with entrapped bacterial cells were formed. The beads were allowed to stir in the CaCl2 solution for about 20 minutes, and then rinsed in a dilute 5 mM CaCl2 solution. Several flasks containing 100 beads each were incubated overnight at 35° C. on a rotating shaker in a buffer solution (at pH 7) with 5 mM addition of CaCl2 to maintain the beads structure. The resulting beads diameter is about 2 mm
At the beginning of the experiment, the supernatant of the beads buffer suspension containing 5 mM CaCl2 was decanted and replaced by the 100 ml biocide solution with the required concentration (between 0.5, 1, 2.5 and 5 ppm as total Cl2).
After different interval contact times, 10 beads were removed and placed in a 5 g/l sodium thiosulfate solution containing 50 mM sodium citrate. The sodium citrate was used to dissolve the alginate gel and release the bacteria into the solution. The neutralizer-citrate solution was placed in the refrigerator for 2 hours, than diluted and placed on R2A agar plates using pour plate technique. The plates were incubated at 35° C. for 24-48 hours and counted. The efficacy and toxicity of the neutralizer were checked as well as a control experiment without biocide addition. Four concentrations (0.5, 1, 2.5 and 5 ppm) were tested at four different contact times (5, 15, 30, and 60 min) FIGS. 1-10 describe the surviving colony forming units (CFU) of the bacteria after the biocide treatment at different contact times.

The nature of data set [2]: Stability of the aqueous biocide solution (total active chlorine as Cl2 over time). It is filed as physicochemical. The text has this: The concentration of the active chlorine is based on the measurement of total chlorine (as Cl2). The term “as Cl2” refers to the measurement of the active chlorine as total chlorine.
Setting [3] is: 1 ppm dose, contact time not stated.

Regarding `O=c1nc([O-])n(Cl)c(=O)n1Cl.[Na+]` [NaDCC, sodium dichloroisocyanurate], the “effect on the microbe concentration” value in data set [1] (0.5 ppm dose) and in data set [1] (1 ppm dose) was “almost no activity” throughout. The “log reduction of microbe concentration” value was 1 log in data set [1] (setting [3]) and “more than 4 log” in data set [1] (2.5 ppm dose, after 60 min). The “time of total kill” value in data set [1] (2.5 ppm dose (as total Cl2)) is given as 60 min; in data set [1] (5 ppm dose (as total Cl2)) it was 30 min.

With `[Na+].[O-]Cl` [NaOCl], the “effect on the microbe concentration” value in data set [1] (0.5 ppm dose) is on record as “no effect was observed at all”. The “log reduction of microbe concentration” value in data set [1] (setting [3]) is 1 log; in data set [1] (2.5 ppm dose, after 60 min), 1 log; in data set [1] (2.5 ppm dose, contact time not stated), 1 log. Moreover, the “time of total kill” value in data set [1] (5 ppm dose (as total Cl2)) is listed as 60 min.

On to `O=c1n(Cl)c(=O)n(Cl)c(=O)n1Cl` [TCCA, trichloroisocyanuric acid], for which the “effect on the microbe concentration” value in data set [1] (0.5 ppm dose) and in data set [1] (1 ppm dose) was “almost no activity” in each case. For the same compound, the “log reduction of microbe concentration” value in data set [1] (setting [3]) is 1 log. Moreover, the “time of total kill” value in data set [1] (2.5 ppm dose (as total Cl2)) is listed as 60 min; in data set [1] (5 ppm dose (as total Cl2)), 30 min.

With `NCl` [chloramine], the “log reduction of microbe concentration” value in data set [1] (0.5 ppm dose, contact time not stated) is 4 log. For the same compound, in data set [2] (after 20.3 hrs), the “active chlorine reading (as Cl2)” value is listed as 493 ppm and the “active chlorine remaining, percent of initial” value is 91%. Besides, in data set [2] (after 44.4 hrs), the “active chlorine reading (as Cl2)” value stood at 223 ppm and the “active chlorine remaining, percent of initial” value is 41.4%. The “time the solution / active Cl2 level stayed stable (unchanged)” value in data set [2] (aqueous solution about 500 ppm as Cl2) is 2 h. For the same compound, in data set [2] (freshly mixed solution, expected 500 ppm as Cl2), the “total active Cl2 found after mixing” value amounted to 539 ppm.
